The text below walks through data of BindingDB's records for doi:10.1016/j.bmcl.2015.06.046 (Cubist Pharmaceuticals, 2015).

What is called IC50 is the midpoint of a concentration-inhibition curve.

A short description of the experiment: Antagonist activity at CCR9 receptor (unknown origin) by serum chemotaxis assay.

Compound `CC(C)(C)c1ccc(S(=O)(=O)Nc2ccc(Cl)cc2-c2nccnc2NCCO)cc1` registered an IC50 of 0.17 µM.
